Assay results: patent US7667042B2, “Stable polymorphic forms of an anticonvulsant” (Sun Pharma Advanced Research Company Ltd., priority 2003, dated 2010)
Where “and” joins values, the source holds several entries; their conditions need not be identical. Equal values may be shown once. Where a name gives a salt, the structure may show the parent alone. Values belong to the compound of their own block, whether it stands above or below them.

How the values were obtained:
[1] = Solubility of tiagabine hydrochloride in various solvents at room temperature; assay type: physicochemical; details: 100 mg sample
[2] = reported in prior art, cited from earlier work; for Thermal stability: elevated temperature, hydrochloride
[3] = Particle size analysis by HELOS (H1551) & RODOS; assay type: physicochemical; details: hydrochloride
From the text: Particle Size Analysis (Analysed by HELOS (H1551) & RODOS)

[4] = XRD analysis after 6 months storage at ambient conditions (polymorph stability); assay type: physicochemical; details: hydrochloride
From the text: In embodiment of the present invention the stable polymorph IV of tiagabine hydrochloride may be obtained in particle size with volume mean diameter (VMD) less than 20 microns.

- Solubility: volume of solvent ([1]; Acetone): 24 mL
- Solubility: volume of solvent ([1]; Acetonitrile): >100 mL
- Solubility: volume of solvent ([1]; DMF): 0.5 mL
- Solubility: volume of solvent ([1]; Ethanol): 0.3 mL
- Solubility: volume of solvent ([1]; Ethylacetate): >100 mL
- Solubility: volume of solvent ([1]; IPA): 1.3 mL
- Solubility: volume of solvent ([1]; Methanol): 0.2 mL
- Solubility: volume of solvent ([1]; Toluene): >100 mL
- Solubility: volume of solvent ([1]; Water): 0.7 mL
Compound: Cc1ccsc1C(=CCCN1CCC[C@@H](C(=O)O)C1)c1sccc1C [tiagabine hydrochloride]

Compound: Cc1ccsc1C(=CCCN1CCC[C@@H](C(=O)O)C1)c1sccc1C [Form II, tiagabine hydrochloride]
- Thermal stability [2]: thermally stable
- Hygroscopicity [2]: non-hygroscopic

- Volume mean diameter (VMD) [3]: 60.2 microns
Compound: Cc1ccsc1C(=CCCN1CCC[C@@H](C(=O)O)C1)c1sccc1C [Form I, tiagabine hydrochloride]
- Thermal stability [2]: less stable at elevated temperature
- Hygroscopicity [2]: non-hygroscopic
- Stability [2]: stable

- Change in x-ray diffraction pattern on storage (polymorphic stability) [4]: matches the XRD of ‘0’ day sample
- Volume mean diameter (VMD) [3]: 16.7 microns and 19.8 microns
Compound: Cc1ccsc1C(=CCCN1CCC[C@@H](C(=O)O)C1)c1sccc1C [Form IV, tiagabine hydrochloride]
- Change in x-ray diffraction pattern on storage (polymorphic stability) ([4]; listed as polymorph IV): no change in the x-ray diffraction pattern
